# Assays:
# Type in all cases: cell-based, human
# NCI-H460 cells = experiment: Cytotoxicity by immunofluorescence cell scoring (cell counts), NSCLC cell line; conditions: 24 h treatment
# Procedure: (§1) Vinorelbine and pemetrexed were purchased from Selleckchem (Houston, TX, USA). Carboplatin, cisplatin, docetaxel, etoposide, gemcitabine, gefitinib, and paclitaxel were purchased from Sigma-Aldrich Chemie GmbH (Taufkirchen, Germany). The cisplatin, carboplatin, and gemcitabine were dissolved in sterile water, while the etoposide, docetaxel, vinorelbine, paclitaxel, gefitinib, and pemetrexed were dissolved in DMSO and stored at −20 °C. Before treatment, all the stock solutions were freshly diluted in sterile water.
# (§2) The compounds were administered 48 h after seeding. The treatment lasted 24 h.
# (§3) The immunofluorescence assay for the quantification of MDR markers was optimized to distinguish cancer cells from stromal cells using a cytokeratin 8/18 (CK8/18) antibody cocktail. The cells were fixed with 4% paraformaldehyde for 20 min at RT and washed three times with PBS using the Wellwash Versa microplate washer (Thermo Fisher Scientific, Waltham, MA, USA). The cells were then blocked with 2% bovine serum albumin (BSA) in PBS for 1 h at RT. […] Co-immunostaining with antibodies against MDR markers was performed to detect the presence of ABCB1, ABCC1, and ABCG2 in both the cancer and stromal cells. […] The secondary antibodies were incubated with the cells at RT for 2 h in the dark. […] Finally, the cells were washed three times with PBS and stored at 4 °C in the dark before imaging.
# (§4) The fluorescently labeled cells were imaged using the ImageXpress Pico Automated Cell Imaging System (Molecular Devices, San Jose, CA, USA) with a 4x objective after determining the appropriate exposure time for each illumination filter. Analysis of the obtained images was performed using CellReporterXpress software v. 2.8.2.669 (Molecular Devices). The cytotoxicity of the compounds was determined using the Cell Scoring Analysis Protocol. […] Expression of MDR markers was determined using the Multi-Wavelength Cell Scoring Analysis Protocol.
# NCI-H460/R cells = experiment: Cytotoxicity by immunofluorescence cell scoring (cell counts), multidrug-resistant NSCLC cell line; conditions: 24 h treatment
# Excerpt: Human non-small cell lung carcinoma cells (NCI-H460) were purchased from the American Type Culture Collection (Rockville, MD, USA), and normal embryonic lung fibroblasts (MRC-5) were purchased from the European Collection of Authenticated Cell Cultures (Salisbury, UK). Multidrug-resistant NCI-H460/R cells overexpressing ABCB1 were selected from the NCI-H460 cells after selective pressure with doxorubicin [21]. All the cell lines were maintained in MEM medium (Sigma-Aldrich Chemie GmbH, Taufkirchen, Germany) supplemented with 10% FBS, 2 mM L-glutamine, and antibiotic-antimycotic solution. All the cell lines were maintained at 37 °C in a humidified atmosphere with 5% CO2.
# as §1, §2, §3, §4
# MRC-5 cells = experiment: Cytotoxicity by immunofluorescence cell scoring (cell counts), normal fibroblasts; conditions: 24 h treatment
# Procedure: as §1, §2, §3, §4
# [1] = test system: ABCB1 expression in MRC-5 cells; experiment: Immunofluorescence assay of MDR marker ABCB1 expression; conditions: five concentrations, 24 h
# Procedure: as §1, §2, §3, §4
# [2] = test system: ABCB1 expression in NCI-H460 cells; experiment: as above; conditions: five concentrations, 24 h
# Procedure: as §1, §2, §3, §4
# [3] = test system: ABCB1 expression in NCI-H460/R cells; experiment: as above; conditions: five concentrations, 24 h
# Procedure: as §1, §2, §3, §4
# [4] = test system: Cancer cells (CK8/18+) of patient-derived NSCLC cultures; experiment: Cytotoxicity in patient-derived NSCLC cultures, cancer cells; conditions: 7 days treatment
# Procedure: (§5) Tissue samples were collected during surgery, and the NSCLC diagnosis, histological grade, stage, necrosis, and lymph node invasion status were determined by histopathological analysis. […] The surgical specimens were placed in a sterile tube containing antibiotic-antimycotic solution (Sigma-Aldrich Chemie GmbH, Taufkirchen, Germany) and immediately transported to the research laboratory for further processing.
# (§6) Upon arrival, the tissue was manually chopped with a surgical blade in a Petri dish under sterile conditions. The samples were cut into 3–5 mm pieces and further dissociated using the Tumor Dissociation Kit (Miltenyi Biotec, Bergisch Gladbach, Germany). The Tumor Dissociation Kit was used to dissociate the cells from the tumor tissue according to the manufacturer’s instructions. The samples were incubated in a 37 °C orbital shaker (KS 4000 ic control, IKA, Königswinter, Germany) at 300 rpm for 90 min. After incubation, the dissociated tissue was placed in DMEM/Ham’s F12 (1:3 ratio) growth medium supplemented with 5% fetal bovine serum (Corning, NY, USA), antibiotic-antimycotic solution, 4 µg/mL hydrocortisone (Sigma-Aldrich Chemie GmbH, Taufkirchen, Germany), 1 µg/mL insulin (Sigma-Aldrich Chemie GmbH, Taufkirchen, Germany), 10 ng/mL epidermal growth factor (BioLegend, San Diego, CA, USA), and 24 µg/mL adenine (Sigma-Aldrich Chemie GmbH, Taufkirchen, Germany). The DMEM and Ham’s F12 growth media were purchased from Sigma-Aldrich Chemie GmbH (Taufkirchen, Germany).
# (§7) The dissociated tissue was cultured in T-25 cell culture flasks until cell attachment was observed before the medium was replaced. If no cell attachment was achieved within 7 days, the sample was discarded. Successful patient-derived cultures were maintained at 37 °C in a humidified atmosphere with 5% CO2 and grown to confluence before undergoing further experiments. […] Partial trypsinization was performed by detaching the fibroblast-like cells with 1 mL of 0.05% trypsin for 1 min at 37 °C, followed by 2 min at room temperature (RT).
# as §1
# (§8) The primary cells were seeded in black, clear bottom 384-well cell culture microplates (Thermo Fisher Scientific, Waltham, MA, USA) in 50 µL of cell growth medium at a density of 1000 cells per well. The compounds were administered 72 h after seeding. The treatment lasted 7 days.
# as §3
# [5] = test system: Non-cancer cells (CK8/18-) of patient-derived NSCLC cultures; experiment: Cytotoxicity in patient-derived NSCLC cultures, non-cancer cells; conditions: 7 days treatment
# Procedure: as §5, §6, §7, §1, §8, §3
# [6] = test system: ABCB1 expression in cancer cells (CK8/18+); experiment: Immunofluorescence assay of ABCB1 expression in patient-derived NSCLC cultures; conditions: 7 days
# Procedure: as §5, §6, §7, §1, §8, §3
# [7] = test system: ABCC1 expression in cancer cells (CK8/18+); experiment: Immunofluorescence assay of ABCC1 expression in patient-derived NSCLC cultures
# Procedure: as §5, §6, §7, §1, §8, §3
# [8] = test system: ABCG2 expression in cancer cells (CK8/18+); experiment: Immunofluorescence assay of ABCG2 expression in patient-derived NSCLC cultures; conditions: 7 days
# Procedure: as §5, §6, §7, §1, §8, §3
# [9] = test system: ABCC1 expression in non-cancer cells (CK8/18-); experiment: Immunofluorescence assay of ABCC1 expression in patient-derived NSCLC cultures, non-cancer cells; conditions: Table S2
# Procedure: as §5, §6, §7, §1, §8, §3
# [10] = NCI-H460 (co-culture with MRC-5)
# [11] = NCI-H460/R (co-culture with MRC-5)
# [12] = MRC-5 (co-culture with NCI-H460)
# [13] = MRC-5 (co-culture with NCI-H460/R)
# [14] = culture TR58, cancer cells (CK8/18+)
# [15] = culture TR64, cancer cells (CK8/18+)
# [16] = culture TR65, cancer cells (CK8/18+)
# [17] = culture TR84, cancer cells (CK8/18+)
# [18] = culture TR87, cancer cells (CK8/18+)
# [19] = culture TR58, non-cancer cells (CK8/18-)
# [20] = culture TR64, non-cancer cells (CK8/18-)
# [21] = culture TR65, non-cancer cells (CK8/18-)
# [22] = culture TR84, non-cancer cells (CK8/18-)
# [23] = culture TR87, non-cancer cells (CK8/18-)
smiles,measurement,setting,value
N.N.O=C([O-])C1(C(=O)[O-])CCC1.[Pt+2] [Carboplatin],IC50,NCI-H460 cells; [10],> 100 µM
same,IC50,NCI-H460 cells; NCI-H460 monoculture,> 100 µM
same,IC50,NCI-H460/R cells; [11],> 100 µM
same,IC50,NCI-H460/R cells; NCI-H460/R monoculture,> 100 µM
same,IC50,MRC-5 cells; [12],> 100 µM
same,IC50,MRC-5 cells; [13],> 100 µM
same,IC50,MRC-5 cells; MRC-5 monoculture,> 100 µM
same,ABCB1 Expression,[1]; [12],no change
same,ABCB1 Expression,[1]; [13],no change
same,ABCB1 Expression,[1]; MRC-5 monoculture,no change
same,ABCB1 Expression,[2]; [10],no change
same,ABCB1 Expression,[2]; NCI-H460 monoculture,no change
same,ABCB1 Expression,[3]; [11],no change
same,ABCB1 Expression,[3]; NCI-H460/R monoculture,no change
same,IC50,[4]; [14],60.8 µM
same,IC50,[4]; [15],39 µM
same,IC50,[4]; [16],22.5 µM
same,IC50,[4]; [17],8.15 µM
same,IC50,[4]; [18],43.3 µM
same,IC50,[5]; [19],27.3 µM
same,IC50,[5]; [20],12.8 µM
same,IC50,[5]; [21],2.16 µM
same,IC50,[5]; [22],1.28 µM
same,IC50,[5]; [23],22.9 µM
same,ABCB1 Expression,[6]; [14],no change
same,ABCB1 Expression,[6]; [15],"increase (An increase in ABCB1, ABCC1, or ABCG2 expression of at least 20% at a minimum of one concentration is shown in the table.)"
same,ABCB1 Expression,[6]; [16],"increase (An increase in ABCB1, ABCC1, or ABCG2 expression of at least 20% at a minimum of one concentration is shown in the table.)"
same,ABCB1 Expression,[6]; [17],"increase (An increase in ABCB1, ABCC1, or ABCG2 expression of at least 20% at a minimum of one concentration is shown in the table.)"
same,ABCB1 Expression,[6]; [18],"increase (An increase in ABCB1, ABCC1, or ABCG2 expression of at least 20% at a minimum of one concentration is shown in the table.)"
same,ABCC1 expression,"[7]; culture TR58, cancer cells (CK8/18+), 7 days",no change
same,ABCC1 expression,"[7]; culture TR64, cancer cells (CK8/18+), 7 days","increase (An increase in ABCB1, ABCC1, or ABCG2 expression of at least 20% at a minimum of one concentration is shown in the table.)"
same,ABCC1 expression,"[7]; culture TR65, cancer cells (CK8/18+), 7 days","increase (An increase in ABCB1, ABCC1, or ABCG2 expression of at least 20% at a minimum of one concentration is shown in the table.)"
same,ABCC1 expression,"[7]; culture TR84, cancer cells (CK8/18+), 7 days","increase (An increase in ABCB1, ABCC1, or ABCG2 expression of at least 20% at a minimum of one concentration is shown in the table.)"
same,ABCC1 expression,"[7]; culture TR87, cancer cells (CK8/18+), 7 days","increase (An increase in ABCB1, ABCC1, or ABCG2 expression of at least 20% at a minimum of one concentration is shown in the table.)"
same,ABCG2 expression,[8]; [14],"increase (An increase in ABCB1, ABCC1, or ABCG2 expression of at least 20% at a minimum of one concentration is shown in the table.)"
same,ABCG2 expression,[8]; [15],"increase (An increase in ABCB1, ABCC1, or ABCG2 expression of at least 20% at a minimum of one concentration is shown in the table.)"
same,ABCG2 expression,[8]; [16],"increase (An increase in ABCB1, ABCC1, or ABCG2 expression of at least 20% at a minimum of one concentration is shown in the table.)"
same,ABCG2 expression,[8]; [17],"increase (An increase in ABCB1, ABCC1, or ABCG2 expression of at least 20% at a minimum of one concentration is shown in the table.)"
same,ABCG2 expression,[8]; [18],"increase (An increase in ABCB1, ABCC1, or ABCG2 expression of at least 20% at a minimum of one concentration is shown in the table.)"
COc1cc2ncnc(Nc3ccc(F)c(Cl)c3)c2cc1OCCCN1CCOCC1 [gefitinib],ABCC1 expression,"[7]; culture TR58, cancer cells (CK8/18+), Table S2",no change
same,ABCC1 expression,"[7]; culture TR64, cancer cells (CK8/18+), Table S2",no change
same,ABCC1 expression,"[7]; culture TR65, cancer cells (CK8/18+), Table S2",increase (an increase in ABCC1 expression of at least 20% at a minimum of one concentration is shown in the Table.)
same,ABCC1 expression,"[7]; culture TR84, cancer cells (CK8/18+), Table S2",increase (an increase in ABCC1 expression of at least 20% at a minimum of one concentration is shown in the Table.)
same,ABCC1 expression,"[7]; culture TR87, cancer cells (CK8/18+), Table S2",no change
same,ABCC1 expression,[9]; [19],no change
same,ABCC1 expression,[9]; [20],no change
same,ABCC1 expression,[9]; [21],no change
same,ABCC1 expression,[9]; [22],no change
same,ABCC1 expression,[9]; [23],no change
